Literature values, collected in US20060080073A1, “Three-dimensional structural activity correlation method” (priority 2002, published 2006).

Target: T1, human corticosteroid-binding globulin (Homo sapiens, UniProt P08185)
T1 sequence (P08185 23-405): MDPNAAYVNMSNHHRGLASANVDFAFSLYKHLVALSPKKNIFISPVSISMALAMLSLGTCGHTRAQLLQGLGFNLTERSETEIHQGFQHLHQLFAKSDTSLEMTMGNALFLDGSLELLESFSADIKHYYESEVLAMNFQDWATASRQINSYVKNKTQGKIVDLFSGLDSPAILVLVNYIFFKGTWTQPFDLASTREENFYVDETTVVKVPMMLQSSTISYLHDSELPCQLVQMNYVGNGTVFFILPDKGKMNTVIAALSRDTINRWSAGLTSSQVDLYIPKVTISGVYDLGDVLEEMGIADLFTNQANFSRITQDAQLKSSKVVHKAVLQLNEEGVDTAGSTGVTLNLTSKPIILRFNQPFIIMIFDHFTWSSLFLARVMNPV
Conditions: steroid derivatives disclosed by Cramer et al. (CoMFA benchmark); values given as negative logarithmic numbers, no unit

Structure (SMILES)	Binding affinity to human corticosteroid-binding globulins (CBG)
C[C@]12CCC(=O)C=C1CC[C@@H]1[C@@H]2CC[C@]2(C)C(=O)CC[C@@H]12 [androstenedione]	−5.763
C[C@]12CC[C@@H]3c4ccc(O)cc4CC[C@H]3[C@@H]1C[C@@H](O)[C@@H]2O [estriol]	−5.000
C[C@]12CC[C@H](O)CC1=CC[C@@H]1[C@@H]2CC[C@]2(C)C(=O)CC[C@@H]12 [dehydroepiandrosterone]	−5.000
C[C@]12CC[C@@H](O)C[C@H]1CC[C@@H]1[C@@H]2CC[C@]2(C)C(=O)CC[C@@H]12 [etiocholanolone]	−5.255
C[C@]12CCC(=O)C=C1CC[C@@H]1[C@@H]2[C@@H](O)C[C@]2(C=O)[C@@H](C(=O)CO)CC[C@@H]12 [aldosterone]	−6.279
C[C@]12CCC(O)CC1CC[C@@H]1[C@@H]2CC[C@]2(C)C(O)CC[C@@H]12 (stereo partly drawn) [androstandiol]	−5.000
C[C@]12CC[C@H]3[C@@H](CCC4=CC(=O)CC[C@@]43C)[C@@H]1CC[C@@H]2O [teststerone]	−6.724
C[C@]12C[C@H](O)[C@H]3[C@@H](CCC4=CC(=O)CC[C@@]43C)[C@@H]1CC[C@@H]2C(=O)CO [corticosterone]	−7.881
C[C@]12CC[C@H]3[C@@H](CCC4=CC(=O)CC[C@@]43C)[C@@H]1CC[C@@H]2C(=O)CO [deoxycorticosterone]	−7.653
C[C@]12CCC(=O)C=C1CC[C@@H]1[C@@H]2C(=O)C[C@@]2(C)[C@H]1CC[C@]2(O)C(=O)CO [cortisone]	−6.892
CC(=O)[C@H]1CC[C@H]2[C@@H]3CCC4=CC(=O)CC[C@]4(C)[C@H]3CC[C@]12C [progesterone]	−7.380
C[C@]12CC[C@@H](O)C[C@@H]1CC[C@@H]1[C@@H]2CC[C@]2(C)C(=O)CC[C@@H]12 [androsterone]	−5.613
C[C@]12CCC(=O)C[C@@H]1CC[C@@H]1[C@@H]2CC[C@]2(C)[C@@H](O)CC[C@@H]12 [dihydrotestosterone]	−5.919
CC(=O)[C@H]1CC[C@H]2[C@@H]3CC=C4C[C@@H](O)CC[C@]4(C)[C@H]3CC[C@]12C [pregnenolone]	−5.255
C[C@]12CCC(=O)C=C1CC[C@@H]1[C@@H]2[C@@H](O)C[C@@]2(C)[C@H]1CC[C@]2(O)C(=O)CO [cortisol]	−7.881
CC(=O)[C@@]1(O)CC[C@H]2[C@@H]3CC[C@@H]4C[C@H](O)CC[C@]4(C)[C@H]3CC[C@@]21C [hydroxy pregnenolone]	−5.000
C[C@]12CCC(=O)C=C1CC[C@@H]1[C@@H]2CC[C@@]2(C)[C@H]1CC[C@]2(O)C(=O)CO [deoxycortisole]	−7.881
CC(=O)[C@@]1(O)CC[C@H]2[C@@H]3CCC4=CC(=O)CC[C@]4(C)[C@H]3CC[C@@]21C [hydroxy progesterone]	−7.740
